Assay results published in patent US20120245229A1, “METHOD FOR TREATING NEUROPATHIC PAIN” (priority 2009, published 2012).
Like-named read-outs stand apart in the source and are kept apart here.

Experiments:
[1] = system: complete Freund's adjuvant (CFA)-evoked heat hyperalgesia; assay: CFA-evoked heat hyperalgesia (paw withdrawal latency, Hargreaves); format: in vivo, mice; conditions: intrathecal; for effective doses relative to that of RvE1: CFA heat hyperalgesia
Method: (§1) Animals and pain models. Adult CD1 mice (male, 25-32 g) were used for most experiments. Knockout mice were used lacking TNFR1/II (Tnfrsf1a/1b^−/−) and TRPV1 (Trpv1^−/−) and C57BL/6 wild-type control mice, all from Jackson, for some experiments. All animal procedures performed in this study were approved by the Harvard Medical Area Standing Committee on Animals. 20 μl of diluted formalin (5%), carrageenan (CRG, 1%), or complete Freund's adjuvant (CFA) were injected into the plantar surface of a hindpaw to produce acute, persistent, or chronic inflammatory pain, respectively. Postoperative pain was also produced through hindpaw incision^36 and neuropathic pain by ligation of the spinal nerve^37.
(§2) Reagents and administration. RvE1 and RvD1 were suspended in 1% or 10% ethanol as vehicle for investigating acute (<1 h) and persistent (1-6 h) effects of resolvins on inflammatory pain. The reagents (10 μl) were delivered to the cerebral spinal fluid via intrathecal injection made by a spinal cord puncture between the L5 and L6 level with a 30G needle^38.
(§3) Behavioral analysis. Mice were habituated in the testing environment for two days and performed behavioral testing in a blinded manner. Formalin-evoked spontaneous inflammatory pain was assessed by measuring duration (seconds) animals spent on licking/flinching the affected paws every 5 min for 45 min. Capsaicin-induced spontaneous pain was aslo assessed for 10 min. For testing mechanical sensitivity, mice were put in boxes on an elevated metal mesh floor and stimulated hindpaw with a series of von Frey hairs with logarithmically incrementing stiffness (0.02-2.56 grams, Stoelting), presented perpendicular to the plantar surface. It was determined the 50% paw withdrawal threshold using Dixon's up-down method^40. For testing heat sensitivity, mice were placed in plastic boxes and tested heat sensitivity using Hargreaves radiant heat apparatus (IITC Life Science Inc.). The basal paw withdrawal latency was adjusted to 9-12 seconds and set a cut-off of 20 seconds to prevent tissue damage. The percent maximal possible antinociceptive effect (% M.P.E) was calculated using the equation % M.P.E.=[(PL−BL2)/(BL1−BL2)]×100. BL1, baseline latency before inflammation; BL2, baseline latency after inflammation but before drug injection; PL, latency post drug injection.
(§4) Intrathecal injection. To avoid systemic effects of drugs and target spinal mechanisms, drugs were delivered into cerebral spinal fluid (CSF) space around lumbosacral spinal cord via intrathecal (i.t.) administration. Spinal cord puncture was made with a 30G needle between the L5 and L6 level to deliver the reagents (10 μl) to the cerebral spinal fluid (Hylden and Wilcox, 1980)^5. […] In addition to spinal cord cells, intrathecal drug administration also affects DRG cells^6,7.
The anti-hyperalgesic efficacy of RvE1 prepared in 1% and 10% ethanol was compared on post-CFA day 3.

[2] = system: SNL-induced neuropathic pain; assay: Neuropathic pain model induced by spinal nerve ligation (SNL); format: in vivo, mice; conditions: for SNL-induced heat hyperalgesia: 10 ng, i.t., one day after spinal nerve ligation
Method: as §1, §3

[3] = system: formalin-induced inflammatory pain; assay: Formalin-induced spontaneous inflammatory pain (licking/flinching duration); format: in vivo, mice; conditions: for formalin-induced pain behavior, 2nd phase: preemptive intrathecal injection, RvE1 0.3 and 1.0 ng, morphine 10 to 500 ng, NS-398 0.1, 1, and 10 μg, chemerin 0.45 to 100 ng; for reversal of RvE1's antinociceptive action, formalin 2nd phase: intrathecal, pertussis toxin 0.2 μg, naloxone 2 μg, ChemR23 siRNA 3 μg daily for 3 days before formalin
Method: as §1, §2, §3, §4
Intrathecal injection: DHA and EPA (Cayman Chemical, 10 μg, prepared in 1% ethanol), COX-2 inhibitor NS-398 (Sigma, 0.1, 1, and 10 μg, prepared in 1% ethanol in FIG. 1a-c or in 10% ethanol in FIG. 2c), morphine (Sigma, 10 to 500 ng, prepared in 1% ethanol in FIG. 1a-c), naloxone (Sigma, 2 μg, prepared in 1% ethanol), pertussis toxin (Tocris Bioscience, 0.2 μg, prepared in saline), chemerin (R & D Systems, 0.45 to 100 ng, prepared in 1% ethanol), TNF-α (R & D Systems, 20 ng, prepared in saline), and capsaicin (Sigma, 0.5 μg in 10 μl, prepared in 1% DMSO) were delivered. To examine whether pretreatment of RvE1 attenuated TNF-α-induced persistent hyperalgesia at 1, 3, and 24 h, RvE1 and TNF-α were mixed and injected at the same time (FIG. 3c). To examine whether pretreatment of RvE1 attenuates capsaicin-induced acute spontaneous pain, RvE1 and capsaicin were mixed and injected at the same time (FIG. 3f).

inflammatory pain = assay: Inflammatory pain models induced by formalin or CFA (summary statements); format: in vivo, mouse
Method: as §1, §3

lamina II neurons = assay: Patch clamp recording of sEPSCs in lamina II neurons of spinal cord slices; format: cell-based, mice
Method: (§5) Spinal cord slice preparation. As previously reported^39, a portion of the lumbar spinal cord (L4-L5) was removed from young mice (3-4 week old) under urethane anesthesia (1.5-2.0 g/kg, i.p.) and transverse spinal cord slices were cut (600 μm) on a vibrating microslicer. The slices were perfused with Kreb's solution (8 ml/min) for >2 h prior to experiments. Some slices were stimulated with TNF-α (10 ng/ml, 5 min), the slices were fixed with 4% paraformaldehyde for 1 h, and processed pERK immunohistochemistry using thin sections (15 μm)^13.
(§6) Patch clamp recordings in spinal slices. Whole cell patch-clamp recordings were performed in lamina II neurons in voltage clamp mode^39. After establishing the whole-cell configuration, neurons were held at the holding potentials of −70 mV for recording spontaneous excitatory postsynaptic current (sEPSC). NMDA-induced currents were recorded by bath application of NMDA (50 μM, Sigma) at the holding potential of −50 mV. Membrane currents were amplified with an Axopatch 200A amplifier (Axon Instruments) in voltage-clamp mode. pCLAMP 6 was used and Mini Analysis (Synaptosoft Inc.) software to store and analyze the data. Those cells showing >5% changes from the baseline levels were reagrded as responding ones^24.
(§7) Resolvins were also used for intraplantar injection. RvD1 or RvE1 was injected into the plantar surface of a hindapaw [20 ng, 20 μl , in 1% ethanol (Supplementary FIG. 5a, 5b) or in 10% ethanol (FIG. 2e, Supplementary FIG. 1d)]. DRG cultures were incubated with RvE1 (10 ng/ml, 0.1% ethanol in culture medium) and perfused spinal cord slices with RvE1 (1 ng/ml, in 0.01% ethanol and Kreb's solution).
(§8) Perfusion of spinal cord slices: Spinal cord slices were incubated with chemerin (100 ng/ml, in Kreb's solution), TNF-α (10 ng/ml, in Kreb's solution), capsaicin (100 nM, in 0.01% DMSO and Kreb's solution), TRPV1 antagonist capsazepine (Sigma, 10 μM, in 0.01% DMSO and Kreb's solution), pertussix toxin (0.5 μg/ml, in Kreb's solution), and MEK inhibitor PD98059 and U0126 (CalBiochem, 1 μM, in 0.01% DMSO and Kreb's solution). For pertussix toxin treatment, spinal cord slices were incubated with the toxin for 3 h before stimulation.

[4] = system: glutamate NMDA receptors (NMDARs); assay: NMDA-induced currents in dorsal horn (lamina II) neurons of spinal cord slices; format: cell-based, mice; conditions: NMDA 50 μM; TNF-α 10 ng/ml; PD98059 1 μM, U0126 1 μM, capsazepine 10 μM
Method: as §5, §6, §7, §8

[5] = system: carrageenan (CRG)-elicited heat hyperalgesia; assay: Carrageenan (CRG)-elicited heat hyperalgesia; format: in vivo, mice; conditions: intraplantar ChemR23 siRNA 4 μg at 48 h, 24 h, and 3 h before carrageenan; 4 h after CRG
Method: as §1, §3
Resolvins were also used for intraplantar injection. […]

ChemR23 = ChemR23 western blotting after siRNA knockdown; format: in vivo, mice
Method: siRNAs were mixed with the transfection reagent polyethyleneimine (PEI, Fermentas), 10 min before injection, to increase cell membrane penetration and reduce the degradation (Tan et al., 2005; 2009)^9,10. PEI was dissolved in 5% glucose, and […] of siRNA was mixed with 0.18 μl of PEI, as shown in our previous study (Kawasaki et al., 2008)^7. In the formalin model, siRNA was administrated via intrathecal route (3 μg), delivered at 72 h, 48 h, and 24 h before formalin injection (supplementary FIG. 1a, b). In the carrageenan model, siRNA was administrated via intraplantar route (4 μg), delivered at 48 h, 24 h, and 3 h before carrageenan injection (supplementary FIG. 1c, d). The knockdown effects of ChemR23 siRNA were examined by Western blotting using a ChemR23 antibody (Santa Cruz).
Animals were transcardially perfused with PBS, and the skin, DRG, and spinal cord tissues were rapidly removed and homogenized in a lysis buffer containing a cocktail of protease inhibitors and phosphatase inhibitors. The protein concentrations were determined by BCA Protein Assay (Pierce), and 30 μg of proteins were loaded for each lane and separated on SDS-PAGE gel (4-15%, Bio-Rad). After the transfer, the blots were incubated overnight at 4° C. with polyclonal antibody against ChemR23 (goat, 1:200, Santa Cruz). For loading control, the blots were probed with tubulin antibody (mouse, 1:5000, Sigma).

[6] = capsaicin 100 nM, RvE1 1 ng/ml, chemerin 100 ng/ml, PD98059 and U0126 1 μM

With CCC(=O)/C=C/C=C\C[C@@H](O)/C=C/C=C/C=C\[C@@H](O)CCCC(=O)O [18-oxo-RvE1, reference compound] the CFA-evoked heat hyperalgesia ([1]; post-CFA day 3, DHA and EPA 10 μg) was “essentially inactive”.

O=C(O)CCC[C@H](O)\C=C/C=C/C=C/[C@H](O)C/C=C\C=C\[C@@H](O)COc1ccc(F)cc1 [19-pf-RvE1, 19-(p-fluorophenoxy)-RvE1] was tested, and the “time for which hyperalgesia was reduced” value ([1]; post-CFA day 3) was 6 h, the SNL-induced heat hyperalgesia [2] was “more persistent reduction in heat hyperalgesia” and the SNL-induced heat hyperalgesia ([2]; listed as modified RvE1) was “reduces SNL-induced heat hyperalgesia”.

In the case of CC/C=C\C/C=C\C/C=C\C/C=C\C/C=C\C/C=C\CCC(=O)O [DHA, docosahexaenoic acid, reference compound], the “effective doses relative to that of RvE1” value [1] is reported as 10,000 times higher.

In the case of CC/C=C\C/C=C\C/C=C\C/C=C\C/C=C\CCCC(=O)O [EPA, eicosapentaenoic acid, reference compound], the “effective doses relative to that of RvE1” value [1] is reported as 10,000 times higher.

CS(=O)(=O)Nc1ccc([N+](=O)[O-])cc1OC1CCCCC1 [NS-398] was tested, and the “formalin-induced pain behavior, 2nd phase” value [3] was “Reduction”.

With CC/C=C\C[C@H](O)\C=C/C=C/C=C/[C@H](O)C/C=C\C/C=C\CCC(=O)O [PD1] the nerve injury-induced hyperalgesia ([2]; neuropathic pain model induced by spinal nerve ligation) was “potently attenuate” and the pain-like behaviors (inflammatory pain) was “potently inhibit”.

COc1cccc(-c2cc(=O)c3ccccc3o2)c1N [PD98059, reference compound] was tested, and the “capsaicin-evoked sEPSC frequency increase” value (lamina II neurons; [6]) was “blocked” and the “TNF-α-induced potentiation of NMDA currents (NMDAR activation)” value (from here on “TNF-α-induced potentiation”) [4] was “blocked”.

With N#CC(=C(/N)Sc1ccccc1N)/C(C#N)=C(\N)Sc1ccccc1N [U0126, reference compound] the “capsaicin-evoked sEPSC frequency increase” value (lamina II neurons) was “blocked” and the “TNF-α-induced potentiation” value [4] was “blocked”.

With COc1cc(CNC(=O)CCCC/C=C/C(C)C)ccc1O [capsaicin, reference compound] the “increase in sEPSC frequency” value (lamina II neurons; capsaicin 100 nM) was 2 fold.

In the case of Oc1cc2c(cc1O)CN(C(=S)NCCc1ccc(Cl)cc1)CCC2 [capsazepine, reference compound], the “TNF-α-evoked sEPSC frequency increase” value (lamina II neurons; TNF-α 10 ng/ml, RvE1 1 ng/ml, capsazepine 10 μM) is reported as “reduced” and the “TNF-α-induced potentiation” value [4] is reported as “but not capsazepine blocked”.

CN1CC[C@]23c4c5ccc(O)c4O[C@H]2[C@@H](O)C=C[C@H]3[C@H]1C5 [morphine] was tested, and the “formalin-induced pain behavior, 2nd phase” value [3] was “Reduction”.

For C=CCN1CC[C@]23c4c5ccc(O)c4O[C@H]2C(=O)CC[C@@]3(O)[C@H]1C5 [naloxone], the “reversal of morphine's antinociceptive effect, formalin 2nd phase” value ([3]; intrathecal naloxone 2 μg) was “reversed” and the “reversal of RvE1's antinociceptive action, formalin 2nd phase” value [3] was “not RvE1's effect”.

With “ChemR23 siRNA: 5′-AACACUGUGUGGUUUGUCAACtt-3′, synthesized by Dharmacon (guide AACACUGUGUGGUUUGUCAACTT; chemistry not given here)” the “reversal of RvE1's antinociceptive action, formalin 2nd phase” value [3] was “reverses RvE1-induced antinociceptive effect”, the “reversal of RvE1-induced anti-hyperalgesic effect” value [5] was “reverses RvE1-induced anti-hyperalgesic effect” and the “ChemR23 expression in the hindpaw skin” value (ChemR23; intraplantar siRNA 4 μg at 48 h, 24 h, and 3 h before carrageenan) was “reduces ChemR23 expression in the hindpaw skin”. The “ChemR23 expression in the DRG” value (ChemR23; intrathecal siRNA 3 μg, daily for 3 days, before formalin injection) was “reduces ChemR23 expression in the DRG”.

pertussis toxin was tested, and the “reversal of RvE1's antinociceptive action, formalin 2nd phase” value [3] was “abrogated”.

B1: chemerin: a peptide agonist for ChemR23 (R & D Systems) (protein, UniProt Q99969 21-157, looked up)
Retinoic acid receptor …: ELTEAQRRGLQVALEEFHKHPPVQWAFQETSVESAVDTPFPAGIFVRLEFKLQQTSCRKRDWKKPECKVRPNGRKRKCLACIKLGSEDKVLGRLVHCPIETQVLREAEEHQETQCLRVQRAGEDPHSFYFPGQFAFS
modifications: Chemerin
With B1 the “formalin-induced pain behavior, 2nd phase” value [3] was “dose-dependently attenuated” and the “capsaicin-evoked sEPSC frequency increase” value (lamina II neurons; [6]) was “abolished”.
